The results in this text go back to patent US4436732A, “Medicated compound for treating diseases infected by virus of the herpes group” (priority 1981, dated 1984).

Data set [1] is described as follows: solubility of the active principle. Format: physicochemical. The text has this:
The active principle is an individual substance of the xanthone nature (mangiferin euxantogen) of the formula C19 H18 O11. […] This compound has not been hitherto used in the medicine.

Data set [2] can be described thus: effect on characteristics of blood coagulation. The following applies: per os, 50 mg/kg, during 4 hours. The data set is classed as in vivo, rabbits. On the procedure:
The study of the effect of the active principle on certain characteristics of blood coagulation has been carried out on 5 rabbits. The compound is administered per os in the dose of 50 mg/kg as a suspension in a 2% starch paste. Blood has been examined prior to the administration and during 4 hours after a single-time administration of the suspension; determined are: blood plasma recalcification, thrombin time, thrombelastographic characteristics and thrombocyte concentration.

A short description of data set [3]: cardiorhythmic effect on the aconitine model of arrhythmia. The data set is classed as in vivo, rat. The following applies: intravenous, 10 and 50 mg/kg. On the procedure:
The cardiorhythmic effect of the active principle has been studied on the rat's aconitine model of arrhythmia upon its intravenous administration in the doses of 10 and 50 mg/kg.

Data set [4] is described as follows: effect on the intensity of bile secretion, acute tests. Format: in vivo, cats. The following applies: 20 and 50 mg/kg. The source says: In acute tests on cats the effect of the active principle on the intensity of bile secretion has been studied.
Data set [5] in a line: acute toxicity and tolerance. The arrangement: species or system white mice, rats, guinea pigs and dogs. The following applies: in vivo. The protocol: The study of an acute toxicity and tolerance of the active principle and the medicated compound in the form of tablets has been carried out on white mice, rats, guinea pigs and dogs with different modes of administration.
The active principle and tablets of the are administered in the form of an aqueous suspension hypodermally, intraperitoneally and in stomach.

The nature of data set [6]: effect on hemodynamics and breathing, acute experiment on narcotized cats. The conditions noted are these: 50 mg/kg intra-stomach. Format: in vivo. The protocol:
The study of the effect of this compound on the characteristics of hemodynamics and breathing has been carried out in an acute experiment on 6 narcotized cats (urethane 1.0 g/kg, chloralose 60 mg/kg) upon the intra-stomach administration of the active principle in the dose of 50 mg/kg. In each cat simultaneously recorded were the breathing frequency cardiac contraction frequency, systemic arterial pressure, amplitude of the volume blood flow in the abdominal aorta, amplitude of the brain rheograms and femur muscles rheorgrams.

Data set [7] is described as follows: anti-ulcerous effect on the model of caffeine-arsenic ulcer. The data set is classed as in vivo, rats. The conditions noted are these: per os for nine days, 20 mg/kg. On the procedure: The anti-ulcerous effect of the active principle has been studied on the model of caffeine-arsenic ulcer in rats. The substance is administered per os for nine days in the doses of 1, 10 and 20 mg/kg.

In data set [8] the test system is vessels of an isolated rabbit's ear. The data set can be described thus: vasodilative effect on vessels of an isolated rabbit's ear. The text has this:
The cardiological effect of the active principle has been studied in experiments on an isolated cat's heart; the effect on electrocardiographic characteristics has been studied in experiments on rabbits; the vasodilative effect--on vessels of an isolated rabbit's ear; the spasmolytic effect--on acetylcholine and barium spasms of smooth muscles of an isolated section of a rat's small intestine.

The nature of a further data set: teratogenic activity. The data set is classed as in vivo, rats. The conditions noted are these: 10 and 100 mg/kg per os daily for 30 days. On the procedure: The study of the teratogenic activity of the active principle has been carried out on 15 couples of adult rats weighing 350 g divided into 3 groups of 5 couples in each. The females of the first group were daily administred 10 mg/kg of the active principle per os for 30 days until the birth of small rats; the females of the second group were administered 100 mg/kg of the active principle during the same period; the females of the third group were the control.

SMILES strings stand for the structures.

The term LD50 denotes the dose expected to kill half of the subjects tested. For `O=c1c2cc(O)c(O)cc2oc2cc(O)c([C@@H]3O[C@H](CO)[C@@H](O)[C@H](O)[C@H]3O)c(O)c12` [active principle, 2-C-β-D-glucopyranosyl-1,3,6,7-tetraoxyxanthone], the solubility in chloroform result in data set [1] (chloroform) is “insoluble”. In data set [1] (ethanol), the solubility in ethanol result was “sparingly soluble”. Also, the “solubility in ethyl ether” value in data set [1] (ethyl ether) is reported as “insoluble”. Besides, the solubility in water entry in data set [1] (water) is “insoluble”. In addition, the “effect on the blood coagulation process” value in [2] is given as “does not substantially affect”. Moreover, the cardiorhythmic effect result in data set [3] is given as “no cardiorhythmic effect”. Besides, in data set [4], the bile secretion intensity entry is listed as “does not increase”. The “toxicity (overall)” value in data set [5] is listed as “low-toxic”. Moreover, the LD50 in [5] (ip, intraperitoneal) was 3000 to 4000 mg/kg; in [5] (po, in-stomach) it was 10000 mg/kg; in data set [5] (sc, hypodermal) it was more than 5000 mg/kg. For the same compound, in data set [6] (narcotized cats), the “other characteristics of hemodynamics” value is “not substantially changed”. Further, the systemic arterial pressure result in [6] (narcotized cats) was “slightly lowers”. In addition, the “reduction of arterial pressure” value in [6] (60 and 90 minutes) is reported as “do not differ from the control”. Besides, in data set [6] (60 and 90 minutes), the “reduction of breathing frequency vs control” value was “do not differ from the control”. The “reduction of breathing frequency” value was determined as 21% in data set [6] (10 minutes, P below 0.05) and 32% in [6] (30 minutes, P below 0.01). Besides, in [7], the anti-ulcerous effect entry is “weak anti-ulcerous effect”. Further, the vasodilative effect entry in [8] was “no vasodilative”. In addition, the teratogenic properties entry in “teratogenic activity” is recorded as “no teratogenic properties”. In addition, the mutagenous activity entry in “mutagenous activity” was “no mutagenous activity”.
